We go through 22 compounds from patent US12263171B2, “7-, 8-, and 10-substituted amino triazolo quinazoline derivatives as adenosine receptor antagonists, pharmaceutical compositions and their use” (Merck Sharp & Dohme LLC, priority 2018, dated 2025).

Experiment [1] addresses human A2a adenosine receptor (Homo sapiens (Human), UniProt P29274). Briefly: A2a receptor affinity radioligand binding assay ([3H] SCH58261, membranes from HEK293 or CHO cells). As to conditions: unstarred values: radioligand binding. In a few lines:
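Displacement of tritiated SCH58261 (working dilution 4 nM) from recombinant human A2a receptor membranes (HEK293 or CHO), 60 min at room temperature in Tris pH 7.4/MgCl2 buffer after 15–30 min compound preincubation. Scintillation counting after filtration; normalized percent effect fitted 4-parameter logistic for IC50.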

The target in experiment [2] is human A2b adenosine receptor (Homo sapiens (Human), UniProt P29275). Briefly: A2b radioligand filtration binding assay (tritiated proprietary A2b antagonist, HEK293 membranes). As to conditions: for IC50: unstarred values: radioligand binding. The gist of the method:
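Displacement of a tritiated proprietary A2b antagonist from membranes of HEK293 cells recombinantly expressing human A2b receptor, measured by filtration and scintillation counting. Percent effect was normalized to total and non-specific binding and fitted with a 4-parameter logistic to give IC50.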

SMILES strings stand for the structures.

Sequence of human A2a adenosine receptor (P29274 whole entry): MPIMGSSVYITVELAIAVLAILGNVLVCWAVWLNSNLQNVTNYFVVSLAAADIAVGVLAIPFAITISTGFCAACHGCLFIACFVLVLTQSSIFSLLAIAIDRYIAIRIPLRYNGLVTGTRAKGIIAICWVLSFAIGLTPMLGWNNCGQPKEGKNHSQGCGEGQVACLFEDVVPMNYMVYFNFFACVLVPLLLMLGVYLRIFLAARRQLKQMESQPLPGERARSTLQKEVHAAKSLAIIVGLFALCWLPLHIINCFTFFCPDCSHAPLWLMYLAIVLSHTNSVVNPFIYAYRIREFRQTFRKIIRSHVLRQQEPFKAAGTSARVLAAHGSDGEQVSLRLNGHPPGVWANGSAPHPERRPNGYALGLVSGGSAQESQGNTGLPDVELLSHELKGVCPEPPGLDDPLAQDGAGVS
Sequence of human A2b adenosine receptor (P29275 whole entry): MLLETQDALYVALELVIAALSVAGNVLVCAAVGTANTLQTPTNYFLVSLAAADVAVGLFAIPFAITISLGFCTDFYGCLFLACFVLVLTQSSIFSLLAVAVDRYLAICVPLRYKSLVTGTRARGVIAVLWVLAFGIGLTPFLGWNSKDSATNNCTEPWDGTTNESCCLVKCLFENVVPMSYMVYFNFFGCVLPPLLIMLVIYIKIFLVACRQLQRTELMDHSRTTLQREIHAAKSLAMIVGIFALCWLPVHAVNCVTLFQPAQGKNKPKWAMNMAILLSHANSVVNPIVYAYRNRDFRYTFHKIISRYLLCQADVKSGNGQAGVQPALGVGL

For `COc1cccc2c1nc(N)n1nc([C@@H]3CCCN(c4cn(CC(C)(C)O)nc4C(F)F)C3)nc21` [Example 53, (R)-1-(4-(3-(5-amino-7-methoxy-[1,2,4]triazolo[1,5-c]quinazolin-2-yl)piperidin-1-yl)-3-(difluoromethyl)-1H-pyrazol-1-yl)-2-methylpropan-2-ol], the half-maximal inhibitory concentration (IC50) in experiment [1] worked out at 0.0007 µM; in experiment [2], 0.151 µM.
As to `COc1cccc2c1nc(N)n1nc([C@@H]3CCCN(c4cnn(C5CCCC5OC)c4)C3)nc21` (stereo partly drawn) [Example 56, 7-methoxy-2-((3R)-1-(1-(2-methoxycyclopentyl)-1H-pyrazol-4-yl)piperidin-3-yl)-[1,2,4]triazolo[1,5-c]quinazolin-5-amine], the figures for the 50% inhibitory concentration (IC50) in experiment [1] and in experiment [2] were 0.0009 µM and 0.175 µM, respectively.
On the same counts, the results for `C[C@H]1CC[C@@H](c2nc3c4ccc(Cl)cc4nc(N)n3n2)CN1c1cnn(CC(C)(C)O)c1` [Example 203, 1-(4-((2S,5R)-5-(5-amino-8-chloro-[1,2,4]triazolo[1,5-c]quinazolin-2-yl)-2-methylpiperidin-1-yl)-1H-pyrazol-1-yl)-2-methylpropan-2-ol] are 0.0007 µM and 0.0017 µM.
For `COc1ccc2c(nc(N)n3nc(C4CCCN(c5cnn(C)c5)C4)nc23)c1F` (single isomer, unassigned) [Example 166, (R or S)-7-fluoro-8-methoxy-2-(1-(1-methyl-1H-pyrazol-4-yl)piperidin-3-yl)-[1,2,4]triazolo[1,5-c]quinazolin-5-amine], the IC50 in experiment [1] amounted to 0.018 µM; in experiment [2], 0.234 µM.
On to `COc1cccc2c1nc(N)n1nc([C@@H]3CCCN(c4ccc(=O)n(C)n4)C3)nc21` [Example 98, (R)-6-(3-(5-amino-7-methoxy-[1,2,4]triazolo[1,5-c]quinazolin-2-yl)piperidin-1-yl)-2-methylpyridazin-3(2H)-one], for which the IC50 in experiment [1] came to 0.0014 µM; in experiment [2], 0.691 µM.
As to `COc1ccc2c(c1)nc(N)n1nc([C@@H]3C[C@H](F)CN(c4cn(CC(C)(C)O)nc4C)C3)nc21` [Example 197B, 1-(4-((3R,5S)-3-(5-amino-8-methoxy-[1,2,4]triazolo[1,5-c]quinazolin-2-yl)-5-fluoropiperidin-1-yl)-3-methyl-1H-pyrazol-1-yl)-2-methylpropan-2-ol], the results for the half-inhibitory concentration (IC50) in experiment [1] and in experiment [2] were 0.0004 µM and 1.37 µM, respectively.
On the same counts, the results for `COc1cccc2c1nc(N)n1nc([C@@H]3CCCN(c4cn(CC(C)(C)O)nc4C(F)(F)F)C3)nc21` [Example 52, (R)-1-(4-(3-(5-amino-7-methoxy-[1,2,4]triazolo[1,5-c]quinazolin-2-yl)piperidin-1-yl)-3-(trifluoromethyl)-1H-pyrazol-1-yl)-2-methylpropan-2-ol] are 0.0004 µM and 0.35 µM.
The matching figures for `Cc1ccc2c(c1)nc(N)n1nc(C3CCCN(c4cnn(C)c4)C3)nc21` (single isomer, unassigned) [Example 199, (R or S)-8-methyl-2-(1-(1-methyl-1H-pyrazol-4-yl)piperidin-3-yl)-[1,2,4]triazolo[1,5-c]quinazolin-5-amine]: 0.0225 µM and 0.257 µM.
Turning to `COc1cccc2c1nc(N)n1nc([C@@H]3CCCN(c4cnn(C5CCOCC5)c4C(F)F)C3)nc21` [Example 49, (R)-2-(1-(5-(difluoromethyl)-1-(tetrahydro-2H-pyran-4-yl)-1H-pyrazol-4-yl)piperidin-3-yl)-7-methoxy-[1,2,4]triazolo[1,5-e]quinazolin-5-amine], the IC50 in experiment [1] came out at 0.0002 µM; in experiment [2] it was 0.036 µM.
Consider `COc1cccc2c1nc(N)n1nc(C3CCCN(c4cnn(C)c4)[C@H]3C)nc21` (some centres unmarked) [Example 128A], for which the IC50 in experiment [1] was found to be 0.862 µM. In experiment [2] (@ 10000 nM, unstarred), the “A2B binding % inh. @ 10000 nM” value is given as 18% inh. @ 10000 nM.
`CCn1cc(N2C[C@@H](c3nc4c5cccc(OC)c5nc(N)n4n3)CC[C@@H]2C)cn1` [Example 140C]: the IC50 in experiment [1] was 0.0006 µM; in experiment [2] it was 0.0112 µM.
The matching figures for `COc1cccc2c1nc(N)n1nc([C@@H]3CCCN(c4cnn(C)c4)C3)nc21` [Example 17, (R)-7-methoxy-2-(1-(1-methyl-1H-pyrazol-4-yl)piperidin-3-yl)-[1,2,4]triazolo[1,5-c]quinazolin-5-amine]: 0.001 µM and 0.0247 µM.
The matching figures for `COc1cccc2c1nc(N)n1nc([C@@H]3CCCN(c4cnn(C(C)(C)CO)c4)C3)nc21` [Example 54, (R)-2-(4-(3-(5-amino-7-methoxy-[1,2,4]triazolo[1,5-c]quinazolin-2-yl)piperidin-1-yl)-1H-pyrazol-1-yl)-2-methylpropan-1-ol]: 0.0004 µM and 0.0163 µM.
The matching figures for `COc1cccc2c1nc(N)n1nc([C@@H]3CCCN(c4cn(C)nc4C(F)(F)F)C3)nc21` [Example 51, (R)-7-methoxy-2-(1-(1-methyl-3-(trifluoromethyl)-1H-pyrazol-4-yl)piperidin-3-yl)-[1,2,4]triazolo[1,5-c]quinazolin-5-amine]: 0.0001 µM and 0.0859 µM.
As to `COc1cccc2c1nc(N)n1nc([C@@H]3CCCN(c4cnn(C5CCCC5O)c4)C3)nc21` (some centres unmarked) [Example 58A], the IC50 in experiment [1] is 0.0002 µM; in experiment [2], 0.0649 µM.
On the same counts, the results for `COc1cccc2c1nc(N)n1nc([C@@H]3CCCN(c4cnn(C(C)(C)C(=O)NC5CCC5)c4)C3)nc21` [Example 37, (R)-2-(4-(3-(5-amino-7-methoxy-[1,2,4]triazolo[1,5-c]quinazolin-2-yl)piperidin-1-yl)-1H-pyrazol-1-yl)-N-cyclobutyl-2-methylpropanamide] are 0.0015 µM and 0.0107 µM.
In the case of `COc1cccc2c1nc(N)n1nc([C@@H]3CCCN(c4cnn(C5CCOC5)c4)C3)nc21` (single isomer, unassigned) [Example 57B], the IC50 in experiment [1] was found to be 0.0003 µM; in experiment [2] it was 0.0893 µM.
Consider `COc1cccc2c1nc(N)n1nc([C@@H]3CCCN(c4cnn(C(C)C(C)(C)O)c4)C3)nc21` (single isomer, unassigned) [Example 61B], for which the values for the IC50 in experiment [1] and in experiment [2] were 0.0004 µM and 0.084 µM, respectively.
On the same counts, the results for `COc1cccc2c1nc(N)n1nc([C@@H]3CCCN(c4cnccn4)C3)nc21` [Example 102, (R)-7-methoxy-2-(1-(pyrazin-2-yl)piperidin-3-yl)-[1,2,4]triazolo[1,5-c]quinazolin-5-amine] are 0.001 µM and 0.151 µM.
For `COc1ccc2c(c1)nc(N)n1nc([C@@H]3CCCN(c4cn([C@H](C)C(C)(C)O)nc4C)C3)nc21` [Example 186A], the IC50 was 0.0004 µM in experiment [1] and 0.462 µM in experiment [2].
On the same counts, the results for `COc1cccc2c1nc(N)n1nc(C3CN(c4cnn(CC(C)(C)O)c4C)CC(F)(F)C3)nc21` (single isomer, unassigned) [Example 159B, (R or S)-1-(4-(5-(5-amino-7-methoxy-[1,2,4]triazolo[1,5-c]quinazolin-2-yl)-3,3-difluoropiperidin-1-yl)-5-methyl-1H-pyrazol-1-yl)-2-methylpropan-2-ol] are 0.0001 µM and 0.792 µM.
On the same counts, the results for `COc1ccc2c(c1)nc(N)n1nc([C@@H]3CCCN(c4cnn([C@H](C)C(C)(C)O)c4)C3)nc21` [Example 185A] are 0.0008 µM and 0.0981 µM.
